# Assays:
# bedstraw = test: Test B pre/postemergence bedstraw; format: in vivo, Galium aparine; conditions: Postemergence
# How it was run: (§1)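 Response is a visual 0-to-10 score relative to untreated plants, where 0 means no effect and 10 means complete control, taken twelve to sixteen days after application. Treatments went onto soil at planting and onto foliage of 1- to 4-leaf plants, using a surfactant-containing non-phytotoxic solvent.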
# blackgrass = test: Test B pre/postemergence blackgrass; format: in vivo, Alopecurus myosuroides
# How it was run: as §1
# surinam grass = test: Test B pre/postemergence surinam grass; format: in vivo, Brachiaria decumbens
# How it was run: as §1
# cocklebur = test: Test B pre/postemergence cocklebur; format: in vivo, Xanthium strumarium
# How it was run: as §1
# corn = test: Test B pre/postemergence corn; format: in vivo, Zea mays
# How it was run: as §1
# crabgrass = test: Test B pre/postemergence crabgrass; format: in vivo, Digitaria sanguinalis
# How it was run: as §1
# giant foxtail = test: Test B pre/postemergence giant foxtail; format: in vivo, Setaria faberii
# How it was run: as §1
# morningglory = test: Test B pre/postemergence morningglory; format: in vivo, Ipomoea hederacea
# How it was run: as §1
# pigweed = test: Test B pre/postemergence pigweed; format: in vivo, Amaranthus retroflexus
# How it was run: as §1
# rape = test: Test B pre/postemergence rape; format: in vivo, Brassica napus
# How it was run: as §1
# soybean = test: Test B pre/postemergence soybean; format: in vivo, Glycine max
# How it was run: as §1
# sugar beet = test: Test B pre/postemergence sugar beet; format: in vivo, Beta vulgaris
# How it was run: as §1
# velvetleaf = test: Test B pre/postemergence velvetleaf; format: in vivo, Abutilon theophrasti
# How it was run: as §1
# wheat = test: Test B pre/postemergence wheat; format: in vivo, Triticum aestivum
# How it was run: as §1
# wild oat = test: Test B pre/postemergence wild oat; format: in vivo, Avena fatua
# How it was run: as §1
# purple nutsedge = test: Test B pre/postemergence purple nutsedge; format: in vivo, Cyperus rotundus
# How it was run: as §1
# rice = test: Test B flood test rice; format: in vivo, Oryza sativa
# How it was run: (§2)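 Plants were grown to the 2-leaf stage before treatment with test chemical, then held in a greenhouse for twelve to sixteen days. Injury was visually rated against untreated controls on a 0–10 scale, where 0 is no effect and 10 is complete control.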
# smallflower flatsedge = test: Test B flood test smallflower flatsedge; format: in vivo, Cyperus difformis
# How it was run: as §2
# duck salad = test: Test B flood test duck salad; format: in vivo, Heteranthera limosa
# How it was run: as §2
# bamyardgrass = test: Test B flood test barnyardgrass; format: in vivo, Echinochloa crus-galli
# How it was run: as §2
# [1] = Postemergence, Rate 125 g/ha, scale 0 to 10, 0 is no effect, 10 is complete control
# [2] = Postemergence, Rate 250 g/ha, scale 0 to 10
# [3] = Postemergence, Rate 500 g/ha, scale 0 to 10, 0 is no effect, 10 is complete control
# [4] = Preemergence, Rate 62 g/ha, scale of 0 to 10 where 0 is no effect and 10 is complete control
# [5] = Preemergence, Rate 125 g/ha, scale 0 to 10, 0 is no effect, 10 is complete control
# [6] = Preemergence, Rate 250 g/ha, scale 0 to 10, 0 is no effect, 10 is complete control
# [7] = Preemergence, Rate 500 g/ha, scale 0 to 10, 0 is no effect, 10 is complete control
# [8] = Rate 62 g/ha, Postemergence, scale 0 to 10 (0 no effect, 10 complete control)
# [9] = Rate 62 g/ha, flood test species, Pre-emergence, visual evaluation after twelve to sixteen days
# [10] = Rate 125 g/ha, under heading Pre-emergence, flood test species, visual evaluation after twelve to sixteen days
# [11] = Rate 250 g/ha, Pre-emergence (flood test species), scale 0 to 10, 0 is no effect, 10 is complete control
# [12] = Rate 500 g/ha, Pre-emergence section of Table B, 0 to 10 scale (0 no effect, 10 complete control)
structure (smiles),measurement,setting,value
CC(C)C(=O)Cn1c(=O)on(C(=O)N(c2ccc(Cl)cc2)C(C)C)c1=O [Compound 487],Bedstraw plant response rating,"bedstraw; Rate 125 g/ha, scale 0 to 10, 0 is no effect, 10 is complete control",2
same,Bedstraw plant response rating,"bedstraw; Rate 250 g/ha, scale 0 to 10",6
same,"Plant response rating, Bedstraw","bedstraw; Rate 500 g/ha, scale 0 to 10, 0 is no effect, 10 is complete control",6
same,Bedstraw plant response rating,"bedstraw; Rate 62 g/ha, scale 0 to 10 (0 no effect, 10 complete control)",0
same,Blackgrass plant response rating,blackgrass; [1],0
same,Blackgrass plant response rating,blackgrass; [2],0
same,"Plant response rating, Blackgrass",blackgrass; [3],1
same,"Plant response rating, Blackgrass",blackgrass; [4],2
same,Blackgrass plant response rating,blackgrass; [5],3
same,Blackgrass plant response rating,blackgrass; [6],7
same,Blackgrass plant response rating,blackgrass; [7],9
same,Blackgrass plant response rating,blackgrass; [8],0
same,B. signalgrass plant response rating,surinam grass; [1],0
same,B. signalgrass plant response rating,"surinam grass; Postemergence, Rate 250 g/ha, scale 0 to 10, 0 no effect, 10 complete control",0
same,"Plant response rating, B. signalgrass",surinam grass; [3],0
same,"Plant response rating, B. signalgrass",surinam grass; [4],3
same,B. signalgrass plant response rating,surinam grass; [5],3
same,B. signalgrass plant response rating,surinam grass; [6],3
same,B. signalgrass plant response rating,surinam grass; [7],5
same,B. signalgrass plant response rating,surinam grass; [8],0
same,Cocklebur plant response rating,cocklebur; [1],0
same,Cocklebur plant response rating,cocklebur; [2],0
same,"Plant response rating, Cocklebur",cocklebur; [3],0
same,"Plant response rating, Cocklebur",cocklebur; [4],0
same,Cocklebur plant response rating,cocklebur; [6],0
same,Cocklebur plant response rating,cocklebur; [7],0
same,Cocklebur plant response rating,cocklebur; [8],0
same,Corn plant response rating,corn; [1],0
same,Corn plant response rating,corn; [2],0
same,"Plant response rating, Corn",corn; [3],0
same,"Plant response rating, Corn",corn; [4],0
same,Corn plant response rating,corn; [5],0
same,Corn plant response rating,corn; [7],0
same,Corn plant response rating,corn; [8],0
same,Crabgrass plant response rating,crabgrass; [1],3
same,Crabgrass plant response rating,crabgrass; [2],5
same,"Plant response rating, Crabgrass",crabgrass; [3],5
same,"Plant response rating, Crabgrass",crabgrass; [4],6
same,Crabgrass plant response rating,crabgrass; [5],9
same,Crabgrass plant response rating,crabgrass; [7],10
same,Crabgrass plant response rating,crabgrass; [8],0
same,Giant foxtail plant response rating,giant foxtail; [1],2
same,"Plant response rating, Giant foxtail",giant foxtail; [3],8
same,"Plant response rating, Giant foxtail",giant foxtail; [4],9
same,Giant foxtail plant response rating,giant foxtail; [5],9
same,Giant foxtail plant response rating,giant foxtail; [7],10
same,Giant foxtail plant response rating,giant foxtail; [8],0
same,Morningglory plant response rating,morningglory; [1],10
same,"Plant response rating, Morningglory",morningglory; [3],10
same,"Plant response rating, Morningglory",morningglory; [4],0
same,Morningglory plant response rating,morningglory; [5],0
same,Morningglory plant response rating,morningglory; [7],0
same,Morningglory plant response rating,morningglory; [8],2
same,Redroot pigweed plant response rating,pigweed; [1],2
same,"Plant response rating, Redroot pigweed",pigweed; [3],3
same,"Plant response rating, Redroot pigweed",pigweed; [4],1
same,Redroot pigweed plant response rating,pigweed; [5],8
same,Redroot pigweed plant response rating,pigweed; [7],10
same,Redroot pigweed plant response rating,pigweed; [8],0
same,Rape plant response rating,rape; [1],0
same,"Plant response rating, Rape",rape; [3],3
same,"Plant response rating, Rape",rape; [4],0
same,Rape plant response rating,rape; [5],0
same,Rape plant response rating,rape; [7],0
same,Rape plant response rating,rape; [8],0
same,Soybean plant response rating,soybean; [1],4
same,"Plant response rating, Soybean",soybean; [3],5
same,"Plant response rating, Soybean",soybean; [4],0
same,Soybean plant response rating,soybean; [5],0
same,Soybean plant response rating,soybean; [7],0
same,Soybean plant response rating,soybean; [8],3
same,Sugarbeets plant response rating,sugar beet; [1],0
same,"Plant response rating, Sugarbeets",sugar beet; [3],0
same,"Plant response rating, Sugarbeets",sugar beet; [4],0
same,Sugarbeets plant response rating,sugar beet; [5],0
same,Sugarbeets plant response rating,sugar beet; [7],0
same,Sugarbeets plant response rating,sugar beet; [8],0
same,Velvetleaf plant response rating,velvetleaf; [1],0
same,"Plant response rating, Velvetleaf",velvetleaf; [3],2
same,"Plant response rating, Velvetleaf",velvetleaf; [4],0
same,Velvetleaf plant response rating,velvetleaf; [5],0
same,Velvetleaf plant response rating,velvetleaf; [7],0
same,Wheat plant response rating,wheat; [1],0
same,"Plant response rating, Wheat",wheat; [3],0
same,"Plant response rating, Wheat",wheat; [4],0
same,Wheat plant response rating,wheat; [5],0
same,Wheat plant response rating,wheat; [7],0
same,Wheat plant response rating,wheat; [8],0
same,Wild oats plant response rating,wild oat; [1],0
same,"Plant response rating, Wild oats",wild oat; [3],0
same,"Plant response rating, Wild oats",wild oat; [4],0
same,Wild oats plant response rating,wild oat; [5],0
same,Wild oats plant response rating,wild oat; [7],6
same,Wild oats plant response rating,wild oat; [8],0
same,Nutsedge plant response rating,purple nutsedge; [1],0
same,"Plant response rating, Nutsedge",purple nutsedge; [3],0
same,"Plant response rating, Nutsedge",purple nutsedge; [4],0
same,Nutsedge plant response rating,purple nutsedge; [5],0
same,Nutsedge plant response rating,purple nutsedge; [7],0
same,Nutsedge plant response rating,purple nutsedge; [8],0
same,"Plant response rating, Rice (0 to 10 scale, 0 is no effect, 10 is complete control)",rice; [9],0
same,"Rice plant response rating (0 to 10 scale, 0 is no effect, 10 is complete control)",rice; [10],0
same,Rice plant response rating,rice; [11],0
same,Rice plant response rating,rice; [12],0
same,"Plant response rating, S. Flatsedge (0 to 10 scale, 0 is no effect, 10 is complete control)",smallflower flatsedge; [9],0
same,"S. Flatsedge plant response rating (0 to 10 scale, 0 is no effect, 10 is complete control)",smallflower flatsedge; [10],0
same,S. Flatsedge plant response rating,smallflower flatsedge; [11],0
same,S. Flatsedge plant response rating,smallflower flatsedge; [12],0
same,"Plant response rating, Ducksalad (0 to 10 scale, 0 is no effect, 10 is complete control)",duck salad; [9],0
same,"Ducksalad plant response rating (0 to 10 scale, 0 is no effect, 10 is complete control)",duck salad; [10],0
same,Ducksalad plant response rating,duck salad; [11],0
same,Ducksalad plant response rating,duck salad; [12],0
same,"Plant response rating, Barnyardgrass (0 to 10 scale, 0 is no effect, 10 is complete control)",bamyardgrass; [9],0
same,"Barnyardgrass plant response rating (0 to 10 scale, 0 is no effect, 10 is complete control)",bamyardgrass; [10],0
same,Barnyardgrass plant response rating,bamyardgrass; [11],0
same,Barnyardgrass plant response rating,bamyardgrass; [12],0
